Results published in patent US4097482A, “5-O-Cyanobenzyl-4,5,6,7-tetrahydro-thieno[3,2-c]pyridine maleate” (Centre d'Etudes Pour L'Industrie Pharmaceutique, priority 1975, dated 1978).

Experiments:
[1] = Toxicological investigation: acute toxicity LD50 in mice, intravenous route; settings: mouse, in vivo, per kg body weight
[2] = test system: carrageenin-induced edema; assay: Anti-inflammatory action: localised carrageenin-induced edema method; assay type: in vivo; settings: rats, 100 mg/kg orally 1 h before, with, 1 h and 2.5 hrs after carrageenin
Procedure: (a) Localised carrageenin-induced edema method: A 1% carrageenin solution (0.1 ml) is injected in the metatarsal flexor muscles of the right hind limb of rats at time 0. The animals of the treated group are additionally administered orally 100 mg/kg of the test derivative, respectively one hour prior to and then simultaneously with the injection of the phlogogenic agent, and then 1 hour and 2.5 hrs thereafter. The percent anti-inflammatory activity with reference to the reference group, as a function of time, is determined by measurements effected with a Roch micrometer at times 0, 1 hour, 2 hours, 3 hours and 5 hours after carrageenin administration. The results obtained with derivatives nos.

[3] = test system: ovalbumin-induced systemic edema; assay: Anti-inflammatory action: ovalbumin-induced systemic edema method; assay type: in vivo; settings: rats, 100 mg orally 1 hr prior to and with ovalbumin, vs control group
Procedure: (b) Ovalbumin-induced systemic edema method Rats are administered a simultaneous intraperitoneal injection of 1 ml ovalbumin and 0.5 ml of a 1°/.Salinity. aqueous Evans Blue solution. The animals of the treated group are additionally administered orally 100 mg of the test derivative, 1 hr prior to and simultaneously with ovalbumin administration. The intensity of the phenomenon thus induced is scored according to a scale from 1 to 5, according to the progress of the inflammatory syndrome. Thus are determined the mean intensity of the edema and the percent decrease of the edema reaction with respect to the control group.

| Compound | LD50 at 24 h [1] [mg/kg] | Percent anti-inflammatory activity after 1 hour [2] [%] | Percent anti-inflammatory activity after 2 hours [2] [%] | Percent anti-inflammatory activity after 5 hours [2] [%] | Percent decrease (of the edema reaction) after 2 hours [3] [%] | Percent decrease (of the edema reaction) after 3 hours [3] [%] |
| --- | --- | --- | --- | --- | --- | --- |
| O=C(O)c1ccccc1CN1CCc2sccc2C1 [Derivative no. 2, 5-o-Carboxybenzyl-4,5,6,7-tetrahydro-thieno[3,2-c]pyridine] | 300 | – | – | – | – | – |
| Cl.c1cc2c(s1)CCN(Cc1ccc3c(c1)OCO3)C2 [Derivative no. 8, 5-(3,4-methylenedioxy-benzyl)-4,5,6,7-tetrahydro-thieno[3,2-c]pyridine hydrochloride] | 65 | 41 | 51 | 59 | 54 | 64 |
| Cl.Clc1ccccc1C=CCN1CCc2sccc2C1 [Derivative no. 6, 5-(3-o-chlorophenyl-2-propenyl)-4,5,6,7-tetrahydro-thieno[3,2-c]pyridine hydrochloride] | 60 | – | – | – | – | – |
| OC(CN1CCc2sccc2C1)c1cccs1 (stereo not drawn) [Derivative no. 5, 5-[2-hydroxy-2-(2-thienyl)-ethyl]-4,5,6,7-tetrahydro-thieno[3,2-c]pyridinefumarate] | 75 | 45 | 53 | 59 | 50 | 61 |
| Cl.Clc1ccc(CN2CCc3sccc3C2)s1 [Derivative no. 4, 5-[(5-Chloro-2-thienyl)-methyl]-4,5,6,7-tetrahydro-thieno[3,2-c]pyridine hydrochloride] | 165 | 39 | 47 | 54 | 48 | 53 |
| N#Cc1ccccc1CN1CCc2sccc2C1.O=C(O)/C=C\C(=O)O [Derivative no. 7, 5-o-cyanobenzyl-4,5,6,7-tetrahydrothieno[3,2-c]pyridine maleate] | 45 | – | – | – | – | – |
| OCc1ccccc1CN1CCc2sccc2C1 [Derivative no. 10, 5-o-hydroxy-methylbenzyl-4,5,6,7-tetrahydrothieno[3,2-c]pyridine] | – | 36 | 48 | 56 | 51 | 62 |
| COC(=O)c1ccccc1CN1CCc2sccc2C1 [Derivative no. 1, 5-o-Methoxycarbonylbenzyl-4,5,6,7-tetrahydro-thieno[3,2-c]pyridine] | 92 | 43 | 50 | 55 | 51 | 58 |
| COC(=O)c1ccccc1CN1Cc2ccsc2CC1C (stereo not drawn) [Derivative no. 3, 5-o-Methoxycarbonylbenzyl-6-methyl-4,5,6,7-tetrahydrothieno[3,2-c]pyridine] | 65 | – | – | – | – | – |
